Earlier results as cited in patent US7074832B2, “Compositions containing antimicrobials and urea for the treatment of dermatological disorders and methods for their use” (Bradley Pharmaceuticals, Inc., priority 2001, dated 2006).
≈ marks a conversion by molar mass, not a printed value.

Columns and labels:
cyclooxygenase = conditions: qualitative statement in the description

solubility in alcohol (alcohol)	solubility in water (water, 20° C.)	Structure (SMILES)	cyclooxygenase activity inhibition (cyclooxygenase)
slightly soluble	10000 µg/mL (≈ 58.4 mM)	Cc1ncc([N+](=O)[O-])n1CCO [Metronidazole, 2-methyl-5-nitro-1H-imidazole-1-ethanol]	
		Cc1c(C)c2c(c(C)c1O)CC[C@@](C)(CCC[C@H](C)CCC[C@H](C)CCCC(C)C)O2 [alpha tocopherol]	not
		Cc1c(O)cc2c(c1C)O[C@](C)(CCC[C@H](C)CCC[C@H](C)CCCC(C)C)CC2 [gamma tocopherol]	inhibit cyclooxygenase activity
		Cc1c(O)cc2c(c1C)OC(C)(CCC(=O)O)CC2 (stereo not drawn) [gamma-CEHC, 2,7,8-trimethyl-2-(beta-carboxyethyl)-6-hydroxychroman]	inhibit cyclooxygenase activity
